Laboratory results from PubChem BioAssay (NCI).
Values joined by “and” are separate entries in the source; they are usually repeats but may differ in a detail not shown here. Identical values can stand only once.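 All cell lines were grown in 96-well plates and treated with compound for 48 hours. GI50 is the concentration that inhibits growth by half. At the TGI there is no net growth.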

What was measured:
Experiment in all cases: DTP human tumour cell line panel, 48 h
[1] = system: 786-0 renal
[2] = system: A498 renal
[3] = system: HCT-116 colon
[4] = system: HOP-62 NSCLC
[5] = system: HS 578T breast
[6] = system: LOX IMVI melanoma
[7] = system: MDA-MB-231 breast
[8] = system: OVCAR-4 ovarian
[9] = system: OVCAR-8 ovarian
[10] = system: SF-295 CNS

With `C/C=C(/C)c1cnc(CC(C)C)c(=O)[nH]1` the TGI [1] was over 100 µM, the TGI [2] was over 100 µM and the TGI [3] was over 100 µM. It also gave a TGI [4] of over 100 µM, a TGI [5] of over 100 µM and a TGI [6] of over 100 µM. The TGI [7] was over 100 µM, the TGI [8] was over 100 µM and the TGI [9] was over 100 µM. For the same molecule, the TGI [10] was over 100 µM.
For `COC(=O)c1cc(-c2ccc(OC)cc2)[nH]c1N/N=C/c1c(Cl)cccc1Cl`, the GI50 [1] was 0.331 µM, the TGI [1] was 4.79 µM and the GI50 [2] was 0.185 µM. The TGI [2] was 3.43 µM, the GI50 [3] was 0.354 µM and the TGI [3] was 2.14 µM. For the same molecule, the GI50 [4] was 0.275 µM, the TGI [4] was 4.71 µM and the GI50 [5] was 0.19 µM. For the same molecule, the TGI [5] was 2.82 µM, the GI50 [6] was 0.146 µM and the TGI [6] was 5.42 µM. For the same molecule, the GI50 [7] was 0.462 µM, the TGI [7] was 3.24 µM and the GI50 [8] was 0.659 µM. For the same molecule, the TGI [8] was over 53.6 µM, the GI50 [9] was 0.442 µM and the TGI [9] was 5.16 µM. It also gave a GI50 [10] of 0.124 µM and a TGI [10] of 1.49 µM.
With `Oc1c(CN2CCCC2)cc(CSCc2ccccc2)c2cccnc12` the GI50 [1] was 0.728 µM, the TGI [1] was 6.09 µM and the GI50 [2] was 2.26 µM. It also gave a TGI [2] of 8.08 µM, a GI50 [3] of 0.694 µM and a TGI [3] of 10.1 µM. It also gave a GI50 [4] of 0.513 µM, a TGI [4] of 7.78 µM and a GI50 [5] of 4.7 µM. It also gave a TGI [5] of 25 µM, a GI50 [6] of 0.386 µM and a TGI [6] of 2.48 µM. The GI50 [7] was 0.987 µM, the TGI [7] was 12.2 µM and the GI50 [8] was 0.456 µM. For the same molecule, the TGI [8] was 2.47 µM, the GI50 [9] was 0.462 µM and the TGI [9] was 9.79 µM. The GI50 [10] was 2.19 µM and the TGI [10] was 8.13 µM.
For `COC(=O)C(=O)C(C(=O)C(N)=O)c1nc2ccc(C(=O)c3ccccc3)cc2[nH]c1=O` (stereo not given), the TGI [1] was over 100 µM, the TGI [2] was over 100 µM and the TGI [3] was over 100 µM. The TGI [4] was over 100 µM, the TGI [5] was over 100 µM and the TGI [6] was over 100 µM. For the same molecule, the TGI [7] was over 100 µM, the TGI [8] was over 100 µM and the TGI [9] was over 100 µM. For the same molecule, the TGI [10] was over 100 µM.
`CCCCN(CCCC)CCc1c(C)cc(C)c(CCN(CCCC)CCCC)c1O` gave a GI50 [1] of 2.96 µM, a TGI [1] of 9.93 µM and a GI50 [2] of 2.3 µM. It also gave a TGI [2] of 7.31 µM, a GI50 [3] of 1.87 µM and a TGI [3] of 8.34 µM. It also gave a GI50 [4] of 3.3 µM, a TGI [4] of 16.8 µM and a GI50 [5] of 2.7 µM. For the same molecule, the TGI [5] was 8.59 µM, the GI50 [6] was 2.67 µM and the TGI [6] was over 100 µM. The GI50 [7] was 2.43 µM, the TGI [7] was 8.56 µM and the GI50 [8] was 3.13 µM. For the same molecule, the TGI [8] was over 100 µM, the GI50 [9] was 3.28 µM and the TGI [9] was over 100 µM. The GI50 [10] was 2.2 µM and the TGI [10] was 6.97 µM.
In the case of `COc1cc(/C=C2\CN(C(=O)CCN3CCC(=NO)CC3)C/C(=C\c3cc(OC)c(OC)c(OC)c3)C2=O)cc(OC)c1OC`, the GI50 [1] is reported as 0.355 µM, the TGI [1] is reported as 1.14 µM and the GI50 [2] is reported as 0.658 µM. For the same molecule, the TGI [2] was 2.07 µM, the GI50 [3] was 0.206 µM and the TGI [3] was 0.467 µM. For the same molecule, the GI50 [4] was 0.719 µM, the TGI [4] was 2.39 µM and the GI50 [5] was 0.441 µM. For the same molecule, the TGI [5] was 13.5 µM, the GI50 [6] was 0.194 µM and the TGI [6] was 0.472 µM. For the same molecule, the GI50 [7] was 0.323 µM, the TGI [7] was 1.11 µM and the GI50 [8] was 0.733 µM. It also gave a TGI [8] of 2.15 µM, a GI50 [9] of 0.444 µM and a TGI [9] of over 35.6 µM. The GI50 [10] was 0.656 µM and the TGI [10] was 1.67 µM.
For `Cc1cnc(Nc2ccc(OCCN3CCCC3)cc2)nc1Nc1cccc(S(=O)(=O)NC(C)(C)C)c1`, the GI50 [1] was 0.197 µM and 1.01 µM, the TGI [1] was 3.95 µM and 2.86 µM and the GI50 [2] was 0.144 µM and 0.385 µM. For the same molecule, the TGI [2] was 0.869 µM and 1.57 µM, the GI50 [3] was 0.345 µM and the TGI [3] was 4.94 µM and > 6.43 µM. For the same molecule, the GI50 [4] was 0.305 µM and 0.848 µM, the TGI [4] was 9.5 µM and > 8.68 µM and the GI50 [5] was 0.181 µM and 0.568 µM. The TGI [5] was 2.28 µM and 3.58 µM, the GI50 [6] was 0.211 µM and 0.938 µM and the TGI [6] was 1.61 µM and 2.3 µM. For the same molecule, the GI50 [7] was 0.214 µM and 1.33 µM, the TGI [7] was 11.7 µM and > 10 µM and the GI50 [8] was 0.671 µM and 0.967 µM. The TGI [8] was 21.3 µM and > 10 µM, the GI50 [9] was 0.666 µM and 2.66 µM and the TGI [9] was 9.03 µM and > 10 µM. The GI50 [10] was 0.304 µM and 2.57 µM and the TGI [10] was 12.4 µM and > 10 µM.
`O=C1C(Cl)=C(c2ccc([N+](=O)[O-])cc2)C(=O)c2c(O)cccc21` showed a TGI [1] of 8.82 µM, a TGI [2] of 12.5 µM and a TGI [3] of 3.55 µM. For the same molecule, the TGI [4] was 14.8 µM, the TGI [5] was 4.13 µM and the TGI [6] was 3.6 µM. For the same molecule, the TGI [7] was 3.13 µM, the TGI [8] was 4.62 µM and the TGI [9] was 5.78 µM. It also gave a TGI [10] of 8.19 µM.
Work on `COc1cc(/C=C2\CC3C4CC=C5C[C@@H](O)CC[C@]5(C)C4CC[C@]3(C)C2=O)ccc1OCCCn1ccnc1` (stereo not given in full) yielded a GI50 [1] of 17.3 µM, a TGI [1] of 31.3 µM and a GI50 [2] of 25.5 µM. For the same molecule, the TGI [2] was 44.2 µM, the GI50 [3] was 16.1 µM and the TGI [3] was 33.4 µM. The GI50 [4] was 19.4 µM, the TGI [4] was 34.1 µM and the GI50 [5] was 26.9 µM. It also gave a TGI [5] of 53.7 µM, a GI50 [6] of 0.509 µM and a TGI [6] of 16.4 µM. It also gave a GI50 [7] of 27.1 µM, a TGI [7] of 65.6 µM and a GI50 [8] of 41.5 µM. The TGI [8] was over 100 µM, the GI50 [9] was 17.1 µM and the TGI [9] was 47.5 µM. For the same molecule, the GI50 [10] was 13.4 µM and the TGI [10] was 27.5 µM.
Work on `Nc1cc2[nH]cnc2c(=O)[nH]1` yielded a TGI [1] of over 300 µM, a TGI [2] of 298 µM and a TGI [3] of over 300 µM. It also gave a TGI [4] of over 191 µM, a TGI [5] of over 300 µM and a TGI [6] of over 300 µM. The TGI [7] was over 300 µM, the TGI [8] was over 300 µM and the TGI [9] was over 300 µM. It also gave a TGI [10] of over 300 µM.
